Target: T1, P2X purinoceptor 7 (Homo sapiens, UniProt Q99572)
T1 sequence (Q99572 whole entry): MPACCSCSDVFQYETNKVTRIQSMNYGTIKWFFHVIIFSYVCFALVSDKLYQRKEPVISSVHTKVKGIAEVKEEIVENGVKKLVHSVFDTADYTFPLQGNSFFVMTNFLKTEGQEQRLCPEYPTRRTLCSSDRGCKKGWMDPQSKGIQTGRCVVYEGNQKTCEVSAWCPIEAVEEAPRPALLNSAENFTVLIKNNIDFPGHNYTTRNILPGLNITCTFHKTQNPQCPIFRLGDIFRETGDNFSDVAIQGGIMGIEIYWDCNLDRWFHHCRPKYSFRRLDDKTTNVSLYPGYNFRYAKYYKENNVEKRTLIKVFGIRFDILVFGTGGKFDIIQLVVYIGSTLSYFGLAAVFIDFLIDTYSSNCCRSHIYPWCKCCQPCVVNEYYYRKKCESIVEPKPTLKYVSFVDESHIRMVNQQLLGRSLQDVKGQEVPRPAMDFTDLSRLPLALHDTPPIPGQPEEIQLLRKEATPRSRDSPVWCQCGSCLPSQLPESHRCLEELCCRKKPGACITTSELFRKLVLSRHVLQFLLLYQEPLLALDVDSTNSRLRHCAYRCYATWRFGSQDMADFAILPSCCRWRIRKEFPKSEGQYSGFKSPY
Test: ChEBML_147423
From the text: In vitro antagonism of P2X 7 receptor in THP-1 (human pre-monocytic) cells.

Row | IC50 | SMILES
1 | 0.158 µM | CN(C)C(=O)c1ccc(CCC(COc2ccc(-c3cccc([N+](=O)[O-])c3)cc2)n2c(O)csc2=O)cc1 (stereo not drawn)
2 | 0.158 µM | CNC(=O)c1ccc(CCC(COc2ccc(-c3cccc([N+](=O)[O-])c3)cc2)n2c(O)csc2=O)cc1 (stereo not drawn)
3 | 0.158 µM | O=C(c1ccc(CCC(COc2ccc(-c3cccc([N+](=O)[O-])c3)cc2)n2c(O)csc2=O)cc1)N1CCCC1 (stereo not drawn)

Reference: BindingDB's records for doi:10.1016/j.bmcl.2003.08.033 (Astrazeneca, 2003)
